Source: patent publication US9856478B2, “Method for selectively inhibiting ACAT1 in the treatment of obesity, metabolic syndrome, and atherosclerosis” (Trustees of Dartmouth College, priority 2013, dated 2018)
pIC50: −log10 of the molar value.

Experiments:
blood myeloid cells = experiment: Blood myeloid cells (CD11b+Gr1+) after 5-FU injection, flow cytometry; type: in vivo, mouse; conditions: 150 mg/kg single injection, six days post-injection
Experimental: It also had shown previously that global Acat1^−/− induces leukocytosis (Huang et al. 2013. Arterioscl. Thromb. Vasc. Biol. 33:2081-2087). Therefore, experiments were performed to compare the hematopoietic recovery of wild-type, global Acat1^−/−, and Acat1^−M/−M mice after injection of the myelo-suppressive agent 5-fluorouracil (5-FU; 150 mg/kg) (Lindner et al. 1960. Cancer Res. 20:497-502). Mice from all three genotypes (7-9 weeks of age) were administered a single 5-FU injection. After injection, blood myeloid cells (CD11b+Gr1+) isolated from these mice were monitored by flow cytometry. […] Six days post-injection, almost all of the myeloid cells in wild-type, Acat1^−/− and Acat1^−M/−M mice were depleted by 5-FU.

ACAT2 = conditions: cited from earlier work
[1] = system: cholesteryl ester synthesis in peritoneal macrophages; experiment: 3H-oleate incorporation into cholesteryl esters in peritoneal macrophages; type: cell-based, mouse; conditions: 5 μM, 16 hours, agLDL, macrophages from wild-type or LyzCre+/+ mice
Experimental: Peritoneal macrophages were isolated as previously described (Sakashita et al. 2010. J. Lipid Res. 51:1263-1272), four days after injecting 1 ml of thioglycolate (TG) (3% wt/vol; Sigma Chemical Co.). Peritoneal leukocytes were isolated and incubated in 6-well culture dishes with 2 ml/well DMEM medium with 10% FBS at 37° C. for two hours. After washing with PBS two times, the firmly attached macrophages were used to measure ACAT1 mRNA and protein level.
Experiments were then performed to confirm that ACAT1 was specifically deleted in macrophages of the Acat1^−M/−M mouse. Peritoneal macrophages were isolated from Acat1^−M/−M and Acat1+^M/+M mice four days after thioglycolate injection. The cells were incubated with aggregated LDL (agLDL), an agent known to provide large amount of cholesterol to macrophages (Khoo et al. 1988. Arteriosclerosis 8:348-358), with or without an ACAT inhibitor at a saturating concentration (Compound F12511; at 5 μM) (Chang et al. 2000. J. Biol. Chem. 275:28083-28092), for 16 hours, followed by ^3H-oleate incorporation to measure the biosynthesis of labeled cholesteryl esters. […] Next, ACAT1 mRNA and protein content were measured in wild-type and Acat1^−M/−M macrophages. […] In wild-type mice, ACAT1 is abundantly expressed in the adrenal glands.

ACAT1 = conditions: cited from earlier work
hACAT-2 = target: T1, hACAT-2 (Homo sapiens, UniProt O75908); conditions: cited from earlier work
T1 sequence (O75908 1-522): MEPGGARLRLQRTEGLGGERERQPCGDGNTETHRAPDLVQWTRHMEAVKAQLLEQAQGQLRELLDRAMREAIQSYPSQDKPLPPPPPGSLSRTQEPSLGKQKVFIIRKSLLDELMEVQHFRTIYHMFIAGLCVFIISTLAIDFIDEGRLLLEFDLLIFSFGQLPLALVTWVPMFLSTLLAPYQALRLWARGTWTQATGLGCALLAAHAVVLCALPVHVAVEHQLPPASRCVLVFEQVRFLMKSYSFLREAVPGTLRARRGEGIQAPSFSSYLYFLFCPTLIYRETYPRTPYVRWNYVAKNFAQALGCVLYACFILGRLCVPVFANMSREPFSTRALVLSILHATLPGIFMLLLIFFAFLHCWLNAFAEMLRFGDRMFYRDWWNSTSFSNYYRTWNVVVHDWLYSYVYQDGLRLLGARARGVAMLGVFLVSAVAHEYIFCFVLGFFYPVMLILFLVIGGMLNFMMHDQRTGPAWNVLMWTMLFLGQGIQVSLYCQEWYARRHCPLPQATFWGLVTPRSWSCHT

mouse ACAT1 = experiment: ACAT1 protein by western blot in transfected NIH-3T3 mouse fibroblasts; type: cell-based; conditions: NIH-3T3, rAAV vector transfection, 48 hours, GFP-positive cells
Source text: NIH-3T3 mouse fibroblasts were transiently transfected with one of several rAAV vectors encoding EmGFP and microRNA (miR) #52, #53, #54 or #55. Forty-eight hours post-transfection, GFP-positive cells were harvested by FACS. GFP-positive cells were washed then lysed in 10% SDS and syringe homogenized. Twenty microgram of protein per sample was subjected to SDS-PAGE. After western blot analysis, bands were quantified with ImageJ. ACAT1 intensity was normalized to GAPDH as a loading control and expressed as relative intensity.
Four different siRNA molecules (#52-#55; Table 3) targeting the mouse Acat1 gene were inserted into an endogenous mouse microRNA (miR) scaffold using Invitrogen's RNAi design tool. The artificial miRs were ligated into the mammalian expression vector pcDNA6.2-GW/EmGFP-miR. […] The miRs were delivered to the cells using a standard cDNA transfection protocol.

Row | Molecule | pIC50 (ACAT2) | further results
1 | O=c1[nH]cc(F)c(=O)[nH]1 [5-FU, 5-fluorouracil] | – | depletion of blood myeloid cells (blood myeloid cells): almost all
2 | CC(C)c1cccc(C(C)C)c1NC(=O)CC(=O)C(Cc1ccccc1)Cc1ccc(O)cc1 (stereo not shown) [Compound 1B] | 5.82 | –
3 | CC(C)c1cccc(C(C)C)c1NC(=O)CC(=O)C(Cc1ccccc1)Cc1ccc(OC(=O)CCCCCCN2CCCCCC2=O)cc1 (stereo not shown) [Compound 1C] | 6.28 | –
4 | CCCCCCCCCCCCS[C@H](C(=O)Nc1cc(C)c(O)c(C)c1C)c1ccccc1 [Eflucimibe (F12511)] | 6.96 | cholesteryl ester synthesis rate [1]: drastically reduced
5 | CCCCCCCC(=O)Nc1ccccc1-c1ccccc1 [compound 1] | 3.64 | –
6 | CCCCCCCCC(=O)Nc1ccccc1-c1ccccc1 [compound 2] | 3.38 | –
7 | CCCCCCCC(=O)Nc1cc(-c2ccccc2)nn1-c1ccccc1 [compound 13] | 4.28 | –
8 | CCCCCCCCC(=O)Nc1cc(-c2ccccc2)nn1-c1ccccc1 [compound 14] | 4.12 | –
9 | CCCCCCCCCNc1cc(-c2ccccc2)nn1-c1ccccc1 [compound 16] | 4.01 | –
10 | CCOC(=O)OC(=O)OCC [diethyl pyrocarbonate] | 3.77 | pIC50 (ACAT1): 4.36; greater activity on ACAT1 compared to ACAT-2 (ACAT1): 4 fold
11 | COc1ccc([C@@H](O)[C@@H](C)Oc2ccc([C@H]3O[C@H](c4ccc(O[C@H](C)[C@H](O)c5ccc6c(c5)OCO6)c(OC)c4)[C@H](C)[C@H]3C)cc2OC)cc1OC [manassantin B] | – | inhibition of hACAT-2 (hACAT-2; at 1 mM): 32%
12 | miR Negative Control: negative control miR 5′-TACTGCGCGTGGAGACG-3′ (SEQ ID NO:17), matches no known vertebrate gene (chemistry not given here) | – | Relative Intensity (ACAT1 normalized to GAPDH) (mouse ACAT1): 1.02
13 | saucerneol B | – | pIC50 (hACAT-2): 3.91
